# Reference: patent publication US20210236476A1, “METHODS OF TREATING CANCER WITH SMALL MOLECULE PD-L1 INHIBITORS” (CHEMOCENTRYX, INC., priority 2018, published 2021)
# Entries after “also recorded” stand apart in the source; their conditions may differ.
# Legend:
# [1] = target: T1, human PD-L1 / human PD-1 interaction (Homo sapiens, UniProt Q9NZQ7); assay: ELISA of PD-1/PD-L1 interaction; assay type: binding
# T1 construct: purchased R&D (PD-L1); ACRO Biosystems (PD-1, biotin)
# How it was run: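 Plates coated with 1 μg/mL human PD-L1 and blocked with BSA; serially diluted (1:5) compounds plus biotinylated human PD-1 (0.3 μg/mL) incubated 1 h at 37° C. Bound PD-1 detected with streptavidin-HRP/TMB, absorbance at 450 nm.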
# [2] = target: recombinant PD-L1 proteins (dimerization) (Homo sapiens, UniProt Q9NZQ7); assay: dimerization ELISA assay; assay type: binding; conditions: FIG. 1B
# Procedure: The activity of Compound 1.041 was assessed with an ELISA assay assessing the direct binding of recombinant PD-1 and PD-L1 proteins (FIG. 1A), a dimerization ELISA assay assessing the direct binding/dimerization of recombinant PD-L1 proteins (FIG. 1B), a cell based assay measuring the downstream signaling following the interaction of PD-1 and PD-L1 using a Luciferase reporter assay with cell lines overexpressing PD-1 and PD-L1 (FIG. 1C), and a mixed lymphocyte reaction assay measuring the functional outcome of upregulation of IFNg secretion, using allogenic primary human immune cells (FIG. 1D). Briefly, the mixed lymophocyte reaction assay was performed as follows: Dendritic cells and CD4+T Cells from unmatched donors were cultured together for 5 days in 96 well-flat bottom plates. Test compound was added as indicated at starting concentration of 1 μM with 1:4 dilutions with DMSO. Supernatants were harvested after 5 days of incubation and detection of human IFNg was performed by ELISA.
# human PBMCs = assay: T-Cell Exhaustion assay (SEB); assay type: cell-based; conditions: human PBMCs stimulated with 100ng/mL SEB for three days; FIG. 2A
# hCD11C+hCD3- cells = assay: PD-L1 Surface Expression Assay (FACS); assay type: cell-based, human; conditions: 16 hours, FIG. 2C
# Procedure: Briefly, this assay was performed as follows: Cells were seeded in 12 well plates. Test compounds or antibodies were added for 16 hours at different concentrations. Cells were washed and stained with anti-human PD-L1, anti-human CD11C and anti-human CD3 for 20 minutes at RT before performing FACS analysis. Matching isotype was used as a control.
# MDA-MB-231 cells = assay: flow cytometry of PD-L1 surface staining with acid wash; assay type: cell-based, human; conditions: FIG. 3
# Procedure: To further investigate the possibility that Compound 1.041 reduces PD-L1 surface expression, flow cytometry analysis was formed on MDA-MB-231 cells after PD-L1 surface staining. An acid-wash protocol (cells were washed 3 times (5 minutes with shaking) with cold acid wash buffer (DMEM containing 0.2% BSA and adjusted to a 3.5 pH) followed by 3 washes (5 minutes with shaking) with ice cold PBS 1X) was used to confirm that differences in PD-L1 cell surface staining was not due to tested article interfering with detection antibody binding.
# [3] = test system: A375 human melanoma cells; assay: prophylactic dosing, A375 melanoma/PBMC co-implantation model; assay type: in vivo, NOD/SCID mice; conditions: Compound 1.041 30mg/kg bid, anti-hPD-L1 5 mg/kg i.p.
# Source text: (§1) Co-crystallized human PD-1/PD-L1 provided structural information from which we developed a number of small molecule checkpoint inhibitors. Active compounds were first profiled by an ELISA assay measuring inhibition of the PD-1/PD-L1 interaction, followed by functional cell-based reporter and mixed lymphocyte reaction (MLR) assays. PD-1/PD-L1 inhibitory compounds thus identified were further selected for in vivo model testing.
# As briefly described in Example 1, the prophylactic activity of Compound 1.041 was tested using immunodeficientp NOD/SCID mice (NOD.CB17-Prkdc^scid/NCrHsd) where A375 human melanoma cells were co-implanted along with human peripheral blood mononuclear cells (PBMCs). The mice were broken into 8 groups (n =10 each group): +/−PBMCs+Vehicle; +/−PBMCs+Compound 1.041; +/−PBMCs+Isotype antibody; and +/−PBMCs+anti-hPD-L1. Anti-hPD-L1 and isotype matched control antibody were injected i.p. at 5 mg/kg on day 1, 5, 9, 13, and 17. Compound 1.041 (30mg/kg) and vehicle dose (1% HPMC) p.i. twice daily (bid) starting on day 1.
# [4] = test system: A375 human melanoma cells; assay: therapeutic dosing, A375 melanoma/PBMC co-implantation model; assay type: in vivo, NOD/SCID mice; conditions: established A375 tumors co-injected with human PBMCs; Compound 1.041 30mg/kg bid, anti-hPD-L1 5 mg/kg i.p., from day 28
# Source text: as §1
# As briefly described in Example 1 the therapeutic activity of Compound 1.041 was tested using immunodeficient NOD/SCID mice (NOD.CB17-Prkdc^scid/NCrHsd) where A375 human melanoma cells were co-implanted along with human peripheral blood mononuclear cells (PBMCs). The mice were broken into 4 groups (n=7 each group): +PBMCs+Vehicle; +PBMCs+Compound 1.041; +PBMCs +Isotype antibody; and +PBMCs+anti-hPD-L1. Anti-hPD-L1 and isotype matched control antibody were injected i.p. at 5 mg/kg on day 28, 32, 36, 40, and 44. Compound 1.041 (30mg/kg) and vehicle dose (1% HPMC) p.i. twice daily (bid) starting on day 28.
# [5] = test system: human T-cells in A375 tumors; assay: tumor microenvironment analysis by flow cytometry (therapeutic dosing study); assay type: in vivo, NOD/SCID mice; conditions: compared to vehicle
# Procedure: The tumor microenvironement of vehicle and Compound 1.041 treatments from the above experiment were further explored by dissecting, mincing and digested with collagenase D the tumors from relevant mice for analysis by flow cytometry. Briefly, this assay was performed as follows: Excised tumors were finely chopped with a blade and digested for 60 minutes at 37° C. in MSS 1X containing 2mg/ml of collagenase D and 1U/ml of DNAse I. Single cells were washed and resuspended in FACS buffer (PBS 1X with 10% FBS and 0.1% azide) containing the following monoclonal antibodies (hCD4 in FITC, PD-L1 in PE, CD3 in PercP-Cy5.5, CD45 in PE-Cy7, PD-1 in APC, CD8a in APC-Cy7, CD69 in Pacific Blue and LIVE/DEAD fixable Aqua stain). Isotype-matched controls were used as negative controls. Flow cytometry data were acquired with a FACSCanto II (BD Biosciences, San Jose, Calif.) cytometer and analyzed using FlowJO. […] The flow cytometer was gated on live cells singlets, hCD45^+ and hCD3^+ cells.
# T1 sequence (Q9NZQ7 19-239 limits assumed): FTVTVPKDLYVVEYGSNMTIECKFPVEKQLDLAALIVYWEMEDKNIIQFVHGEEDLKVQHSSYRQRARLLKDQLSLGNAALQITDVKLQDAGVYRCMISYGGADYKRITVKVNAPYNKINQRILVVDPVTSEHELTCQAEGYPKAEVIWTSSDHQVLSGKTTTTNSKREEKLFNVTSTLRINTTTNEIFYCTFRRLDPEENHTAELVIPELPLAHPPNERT
# recombinant PD-L1 proteins (dimerization), sequence (Q9NZQ7 19-239 limits assumed): as above
Compound,IC50 [1] [nM],further results
CCOc1cc(O[C@H]2CCc3c(-c4cccc(OCCCN5CCC5(C)C)c4C)cccc32)c(Cl)cc1CN(C)CCCC(=O)O,< 5,
Cc1c(OCCCN2CCC(F)CC2)cccc1-c1cccc2c1CC[C@@H]2Oc1cc(OCc2cncc(C#N)c2)c(CNCCS(=O)(=O)O)cc1Cl,< 5,
CCOc1cc(O[C@H]2CCc3c(-c4cccc(OCCCN5CCC5(C)C)c4C)cccc32)c(Cl)cc1CN1CC[C@H](C(=O)O)C1,5 to 500,
"C[C@@](CO)(NCc1cc(Cl)c(O[C@H]2CCc3c(-c4cccc(OCCCN5CC(O)C5)c4Cl)cccc32)cc1OCc1cncc(C#N)c1)C(=O)O [Compound 1.041, (S)-2-((5-chloro-4-(((S)-4(2-chloro-3-(3-(3-hydroxyazetidin-1-yl)propoxy)phenyl)-2,3-dihydro-1H-inden-1-yl)oxy)-2-((5-cyanopyridin-3-yl)methoxy)benzyl)amino)-3-hydroxy-2-methylpropanoic acid]",,"blocking of PD-1/PD-L1 interaction ([1]; FIG. 1, stated collectively for the assays): highly potent and blocks PD-1/PD-L1 interaction; induction of hPD-L1 dimerization [2]: induction of hPD-L1 dimerization; reversal of T cell exhaustion phenotype (IFN-g induction by SEB) (human PBMCs): reversed T cell exhaustion phenotype; also recorded: reverses T-Cell exhaustion phenotype; PD-L1 surface expression (hCD11C+hCD3- cells): significantly reduced PD-L1 surface expression; PD-L1 surface staining (MDA-MB-231 cells): reduced PD-L1 surface staining intensive; also recorded: PD-L1 expression decreases; tumor growth ([3]; A375 cells + co-injected hPBMCs, from day 1): reduced tumor growth in vivo to a similar extent as the positive control anti-human PD-L1 antibody; also recorded: inhibited tumor growth; tumor growth ([3]; A375 cells alone (no hPBMCs)): no effect on A375 tumor growth; relative tumor growth [4]: reduced tumor growth in vivo to a similar extent as the positive control anti-human PD-L1 antibody; also recorded: significant inhibitory effect; PD-1 expression (mean fluorescence intensity) ([5]; human CD8+ T-cells from treated mice, FIG. 10): reduction in PD-1 expression; percentage of hCD8+ T-Cells in contrast to hCD4+ T-Cells ([5]; tumors, FIG. 9A-B): increases the percentage of hCH8^+ T-cells relative to hCH4^+ T-cells; ratio of hCD8+/hCD4+ T-cells ([5]; tumors, FIG. 9C): significantly higher CD8^+ T-Cell/CD4^+ T-cell ratio"
C[C@@](CO)(NCc1cc(Cl)c(O[C@H]2CCc3c(-c4cccc(OCCCN5CC(O)C5)c4Cl)cccc32)cc1OCc1cncc(C#N)c1)C(=O)O [drawing 79],< 5,
N#Cc1cncc(COc2cc(O[C@H]3CCc4c(-c5cccc(OCCCN6CCC(F)CC6)c5Cl)cccc43)c(Cl)cc2CN[C@H]2CCOC[C@@H]2O)c1 [drawing 198],< 5,
N#Cc1cncc(COc2cc(O[C@H]3CCc4c(-c5cccc(OCCCN6CCC(F)CC6)c5Cl)cccc43)c(Cl)cc2CN[C@H]2CCOC[C@@H]2O)c1 [drawing 235],< 5,

# Further lines, with some results ahead:
IC50 [1] [nM],Compound,further results
< 5,Cc1c(OCCCN2CCC(O)CC2)cccc1-c1cccc2c1CCC2Oc1cc(OCc2cc(C#N)cc(C#N)c2)c(CN[C@@H](CO)C(=O)O)cc1Cl (some centres unmarked),
< 5,N#Cc1cncc(COc2cc(O[C@H]3CCc4c(-c5cccc(OCCCN6CCC(O)CC6)c5Cl)cccc43)c(Cl)cc2CN[C@@H]2CCCC[C@@H]2O)c1,
< 5,N#Cc1cncc(COc2cc(O[C@H]3CCc4c(-c5cccc(OCCCN6CCC(O)CC6)c5Cl)cccc43)c(Cl)cc2CNC(CO)CO)c1,
< 5,Cc1c(OCCCNC[C@@H](O)CO)cccc1-c1cccc2c1CC[C@@H]2Oc1cc(OCc2cncc(C#N)c2)c(CN[C@H](C(=O)O)[C@@H](C)O)cc1Cl,
< 5,Cc1c(OCCCN2CCC(O)CC2)cccc1-c1cccc2c1CC[C@H]2Oc1cc(OCc2cncc(C#N)c2)c(CN[C@H](C(=O)O)[C@@H](C)O)cc1Cl,
< 5,Cc1c(OCCCN2CCC(O)CC2)cccc1-c1cccc2c1CC[C@@H]2Oc1cc(OCCCN2CC[C@@H](O)C2)c(CN[C@@H]2CCCC[C@@H]2O)cc1Cl,
< 5,CCOc1cc(O[C@H]2CCc3c(-c4cccc(OCCCN5CC(O)C5)c4C)cccc32)c(Cl)cc1CN[C@@H](CO)C(=O)O,
< 5,CCOc1cc(O[C@H]2CCc3c(-c4cccc(OCCCN5CCC(F)CC5)c4C)cccc32)c(Cl)cc1CN[C@@H](CO)C(=O)O,
< 5,CCOc1cc(O[C@H]2CCc3c(-c4cccc(OCCCN5CC6(CC(O)C6)C5)c4C)cccc32)c(Cl)cc1CN[C@@H](CO)C(=O)O,
